Literature values as cited in US20250289851A1, “CYCLIC PEPTIDES FOR DELIVERING THERAPEUTICS” (ENTRADA THERAPEUTICS, INC., priority 2022, published 2025).

Assays:
[1] = hydrophobicity value, scale of Eisenberg and Weiss
[2] = hydrophobicity value, scale of Engleman et al.
[3] = hydrophobicity value, scale of Kyte and Doolittle
[4] = hydrophobicity value, scale of Hoop and Woods
[5] = hydrophobicity value, scale of Janin

Question: For `CC[C@H](C)[C@H](N)C(=O)O` [Ile, Isoleucine], which “Amino Acid Hydrophobicity, Eisenberg and Weiss” value [1] is on record?
Answer: Its value is 0.73.

Question: What about the “Amino Acid Hydrophobicity, Engleman et al.” value [2] of the same compound?
Answer: Its value is 3.1.

Question: What about the “Amino Acid Hydrophobicity, Kyte and Doolittle” value [3] of the same compound?
Answer: The value was 4.5.

Question: What about the “Amino Acid Hydrophobicity, Hoop and Woods” value [4] of the same compound?
Answer: Its value is −1.8.

Question: What about the “Amino Acid Hydrophobicity, Janin” value [5] of the same compound?
Answer: The value was 0.7.
